From patent US20100029778A1, “HAIR AND/OR SCALP TREATMENT COMPOSITIONS” (Unilever Home & Personal Care USA, Division of Conopco, Inc., priority 2001, published 2010)
“And” between values parts separate entries of the source, which are not always exact repeats. Identical values can stand only once.

Legend:
histamine-induced itch [1] = experiment: Histamine-induced itch, test material topically applied in ethanol:Vaseline Intensive Care Lotion 1:1; assay type: in vivo, human; details: for Effect on histamine-induced itch (in words): topically applied in the presence of a lotion; for Itch score % of control: 50 mM in ethanol mixed 1:1 with VICL, control = ethanol:VICL vehicle alone of the same run
histamine-induced itch [2] = experiment: Histamine-induced itch, test material applied under water-impermeable patch for 24 hours before histamine challenge; details: applied by patch
histamine-induced itch [3] = experiment: Histamine-induced itch, topically applied Aqueous Cream BP, histamine iontophoresis, VAS; details: for Itch score (area under the curve): volar forearm skin, after 4 hours, VAS area under curve 0 to 5 minutes; for Itch score % of control: control = vehicle alone
[4] = HU-210 0.05% (w/v) in Aqueous Cream BP
[5] = HU-210 0.5% (w/v) in Aqueous Cream BP

CCCCCCCCCCCCCCCC(=O)NCCO [PEA, Palmitoylethanolamide]
Effect on histamine-induced itch (in words) (histamine-induced itch [1]): can inhibit histamine-induced itch
Effect on histamine-induced itch (in words) (histamine-induced itch [2]): can inhibit histamine-induced itch

CCCCCCCCCCCCCCCCCC(=O)NCCO [SEA]
Itch score % of control (histamine-induced itch [1]): 231% and 260% and 190%
Effect on histamine-induced itch (in words) (histamine-induced itch [1]): unable to demonstrate any anti-pruritic action or even appeared to exacerbate the itch response

CCCCCCC(C)(C)c1cc(O)c2c(c1)OC(C)(C)[C@@H]1CC=C(CO)C[C@@H]21 [HU-210, (6aR)-trans-3-(1,1-Dimethylheptyl)-6a,7,10,10a-tetrahydro-1-hydroxy-6,6-dimethyl-6H-dibenzo[b,d]pyran-9-methanol]
Itch score (area under the curve) (histamine-induced itch [3]; [4]): 101
Itch score % of control (histamine-induced itch [3]; [4]): 7.3%
Itch score (area under the curve) (histamine-induced itch [3]; [5]): 119
Itch score % of control (histamine-induced itch [3]; [5]): 6.2%
Effect on histamine-induced itch (in words) (histamine-induced itch [3]; topically applied in cream): capable of reducing histamine-induced itch

CCCCC/C=C\C/C=C\CCCCCCCC(=O)NCCO [LAMEA, linoleoylethanolamine]
Itch score % of control (histamine-induced itch [1]): 169% and 108% and 100%
Effect on histamine-induced itch (in words) (histamine-induced itch [1]): unable to demonstrate any anti-pruritic action or even appeared to exacerbate the itch response
